Experimental data reported in US11505797B2, “Gene knockout of variant NRF2 for treatment of cancer” (Christiana Care Health Services, Inc., priority 2019, dated 2022).
Entries after “also recorded” stand apart in the source; their conditions may differ.

Key:
[1] = tested on: NRF2 locus (exon 4) in A549 cells; assay: TIDE indel analysis of bulk sorted eGFP+ A549 cells transfected with pX458 gRNA1 or gRNA2; assay type: cell-based, human; details: bulk sorted eGFP+ A549 population, pX458 plasmid
Method: A549 cells were transfected at a concentration of 5×10^5 cells/100 μl in 4 mm gap cuvette (BioExpress, Kaysville, Utah, USA). NRF2 targeting pX458 constructs were separately electroporated (250 V, LV, 13 ms pulse length, 2 pulses, 1 s interval) into A549 cells using a Bio-Rad Gene Pulser XCell Electroporation System (Bio-Rad Laboratories, Hercules, Calif., USA). Cells were then recovered in 6-well plates with complete growth media at 37° C. for 72 hours prior to sorting. […] Clones were expanded and transferred to larger plates as the individual clones reached confluence, with DNA isolation occurring when cells reached confluence in a six-well plate (1×10^6 cells/mL). […]
FIG. 1B illustrates the functional domains of the NRF2 protein including the KEAP1 Binding Domain, Transactivation Domain, Repressor Binding Domain, β-TrCP Binding Domain, DNA Binding Domain and the Transcriptional Activation Domain. […] To evaluate the efficiency of CRISPR-directed NRF2 knockout in the total targeted population, eGFP+ cells were isolated as a population, and the degree of genetic disruption at the NRF2 locus in cells, transfected with either gRNA1 or gRNA2 pX458, was determined. The sorted populations were Sanger-sequenced and the resulting trace files were analyzed for the presence of indels, a marker for gene disruption. […]

[2] = tested on: NRF2 knockout A549 (2-11) tumors; assay: Xenograft mouse model, NRF2 knockout A549 (2-11) tumors; assay type: in vivo, athymic nude mice; details: tail vein day 0, 3, 6, 9; cisplatin 2 mg/kg; cisplatin 5 mg/kg + vinorelbine 5 mg/kg; carboplatin 25 mg/kg
Method: The human xenograft model was established using methodology reported previously. Kellar et al., Biomed Res. Int. […] Female athymic nude mice (Envigo, 5-6 weeks old) were used in this study. Approximately 5×10^6 cells (wild type A549 or homozygous knockout (clonal expansion 2-11)) suspended in PBS with 20% Matrigel were injected subcutaneously into right flank of each mouse. Tumor volume was measured three times a week with a digital caliper once palpable, and calculated using the formula, tumor size=ab^2/2, where ‘a’ is the larger and ‘b’ is the smaller of the two dimensions. When tumors grew up to a mean volume of around 100 mm^3, A549 tumor bearing mice or A549-2-11 tumor bearing mice were randomly divided into 7 groups (N=5 for each group) respectively and subject to dose/regimen-finding study. […] Tumor volume and body weight was closely monitored over time. After 16 days, the animals were sacrificed, with tumor removed, weighed and processed for molecular analysis. Mice were euthanized. The data were expressed as mean±SD. Student's t-test and one-way or two-way ANOVA was used to assess the significance of difference. A P value<0.05 was considered significant.
A549 xenografts were resected on day 16, snap frozen in liquid nitrogen and stored in −80° C. until usage. All immunofluorescence staining was performed as previously described. Wang et al., Investig. Opthalmology Vis. […] Briefly, tumors were embedded in Optimum Cutting Temperature (Tissue Tek, Torrance, Calif., USA) and 16-μm-thick sections were obtained with a Leica CM3050 cryostat (Leica Microsystems, Buffalo Grove, Ill., USA), and mounted on slides. Slides were fixed and incubated with blocking buffer for 1 hour at room temperature. […] Sections were washed in PBS, then mounted with SlowFade Gold antifade mountant with DAPI (Invitrogen, Carlsbad, Calif., USA). Images were obtained with a Zeiss Observer.Z1 microscope (Carl Zeiss, Inc., Gottingen, Germany). The TUNEL assay was conducted with In Situ Cell Death Detection Kit, Fluorescein (Roche, Base, Switzerland), following the manufacturer's instructions. […]

[3] = tested on: NRF2 knockout A549 cells (2-11); assay: MTS cell proliferation assay, NRF2 knockout A549 cells (2-11); assay type: cell-based, human; details: 2-11 knockout A549, increasing dosages, 72 hours; listed as Carboplatin
Method: Cell viability was evaluated using the CellTiter 96 Aqueous Non-Radioactive Cell Proliferation Assay (Promega, Madison, Wis.). A549 cell lines were plated at 2×10^3 cells per well and allowed to culture for 24 hours. The cell media was then aspirated, the cells washed with PBS, then exposed to the MTS reagent for 3 hours. After 3 hours of MTS bio-reduction by proliferating cells, the formazan product's absorbance was measured using a 450 nm filter on an Infinite 2000 PRO microplate reader (Tecan, Mannadorf, Switzerland). Cell viability after drug exposure was evaluated using the CellTiter 96 Aqueous Non-Radioactive Cell Proliferation Assay. A549 cell lines were plated at 2×10^3 cells per well and allowed to culture for 24 hours. The cells were then treated with cisplatin, carboplatin, or a combination of cisplatin and vinorelbine for three days. The cell media was then aspirated, the cells washed with PBS, then exposed to the MTS reagent for 3 hours. After 3 hours of MTS bio-reduction by proliferating cells, the formazan product's absorbance was measured using a 450 nm filter on an Infinite 2000 PRO microplate reader.

[4] = tested on: wildtype NRF2 gene in the H1703 cell line; assay: TIDE indel efficiency of R34G sgRNA at various lengths in H1703 parental cells; assay type: cell-based, human; details: for total indel efficiency: 250 pmol sgRNA to 50 pmol Cas9, 72 hours
Method: H1703 parental cells were cultured 48 hours prior to transfections and about 60-80% confluent on the day of transfection. 10^6 cells per 100 ul was used per transfection and each condition was run in duplicate.
Each CRISPR/Cas9 RNP was complexed at a 5:1 ratio of sgRNA to Cas9. 250 pmol of sgRNA was complexed at room temperature with 50 pmol of Cas9, in duplicate. The RNP complex was then transfected into H1703 parental cells using nucleofection (Lonza) with the SF Nucleofection Kit. Transfected cells were plated and allowed to recover for 72 hours. After the 72 hours, each sample of cells was collected by trypsinization and pelleted for further analysis. Cell pellets were used for genomic DNA isolation, PCR and Sanger sequencing.
It has been reported that gRNA length can affect target specificity (Fu et al., Nat. Biotechnol. 32:279-84 (2014)). The efficiency of indel formation of the various length R34G sgRNAs to the wildtype “on-target” site was evaluated. sgRNAs for each length were synthetized and complexed with purified Cas9. Replicate experiments were carried out with H1703 lung squamous cells that were transfected with each RNP, recovered for 72 hours, then analyzed for indel formation. No R34G site is present in the wildtype NRF2 gene in the H1703 cell line, therefore only minimal or background gene editing activity is expected.

For “5′-UCGAUGUGACCGGGAAUAUCAGG-3′ (expressed or natural sequence) [gRNA1]”, the “indels by TIDE (NRF2 disruption)” value [1] was “significant amount of indels”.
“5′-UGAUUUAGACGGUAUGCAACAGG-3′ (expressed or natural sequence) [gRNA2]” was tested, and the “indels by TIDE (NRF2 disruption)” value [1] was “significant amount of indels”.
For `N.N.O=C([O-])C1(C(=O)[O-])CCC1.[Pt+2]` [carboplatin], the “tumor growth over 16 days” value [2] was “the same reduced proliferation and growth trend described above is reproduced; also recorded: significant reduction in tumor cell proliferation” and the “chemosensitivity (MTS cell proliferation)” value [3] was “the cell killing response reflected what was observed in the experiments using cisplatin”.
Work on “AAGATATAGATCTTGGAGTAAG (listed as DNA, chemistry not given here) [22 nucleotide length sgRNA]” yielded a sequence remaining wildtype ([4]; first value (replicate 1)) of 98.2%, a total indel efficiency ([4]; first value (replicate 1)) of 1.2% and a sequence remaining wildtype ([4]; replicate 2) of 96.5%. For the same molecule, the total indel efficiency ([4]; replicate 2) was 2.3%.
For “ATAGATCTTGGAGTAAG (listed as DNA, chemistry not given here) [17 nucleotide length sgRNA]”, the sequence remaining wildtype ([4]; first value (replicate 1)) was 98.0%, the total indel efficiency ([4]; first value (replicate 1)) was 1.5% and the sequence remaining wildtype ([4]; replicate 2) was 97.7%. The total indel efficiency ([4]; replicate 2) was 1.6%.
In the case of “CAAGATATAGATCTTGGAGTAAG (listed as DNA, chemistry not given here) [23 nucleotide length sgRNA]”, the sequence remaining wildtype ([4]; first value (replicate 1)) is reported as 95.8%, the total indel efficiency ([4]; first value (replicate 1)) is reported as 3.4% and the sequence remaining wildtype ([4]; replicate 2) is reported as 95.2%. The total indel efficiency ([4]; replicate 2) was 3.8%.
In the case of “GATATAGATCTTGGAGTAAG (listed as DNA, chemistry not given here) [20 nucleotide length sgRNA]”, the sequence remaining wildtype ([4]; first value (replicate 1)) is reported as 98.4%, the total indel efficiency ([4]; first value (replicate 1)) is reported as 0.8% and the sequence remaining wildtype ([4]; replicate 2) is reported as 96.2%. It also gave a total indel efficiency ([4]; replicate 2) of 2.9%.
For “TATAGATCTTGGAGTAAG (listed as DNA, chemistry not given here) [18 nucleotide length sgRNA]”, the sequence remaining wildtype ([4]; first value (replicate 1)) was 97.4%, the total indel efficiency ([4]; first value (replicate 1)) was 1.9% and the sequence remaining wildtype ([4]; replicate 2) was 96.6%. The total indel efficiency ([4]; replicate 2) was 2.6%.
